These results are taken from ChEMBL document CHEMBL5236596, “Discovery and Optimization of N-Acyl-6-sulfonamide-tetrahydroquinoline Derivatives as Novel Non-Steroidal Selective Glucocorticoid Receptor Modulators” (J Med Chem, 2022).

One series has as its system GES1. As to the kind of experiment: Cytotoxicity against human GES1 cells assessed as inhibition of cell growth. The class given is toxicity, cell-based.
The nature of series [1]: Toxicity in DNCB-induced BALB/c atopic dermatitis mouse model assessed as body weight gain at 1 mg/kg, po administered via gavage for 21 consecutive days starting from day 4 post DNCB stimulation. Format: organism-based. As to conditions: in vivo, 504 h, time 21 day.
Series [2] can be described thus: Inhibition of LPS-induced TNF-alpha secretion in mouse primary peritoneal macrophages by ELISA. The note with it: Peritoneal macrophage. Format: functional, cell-based.
Series [3] is described as follows: Inhibition of LPS-induced IL-6 secretion in mouse primary peritoneal macrophages by ELISA. As to conditions: Peritoneal macrophage. The class given is functional, cell-based. A general note: An ELISA detects its analyte on a solid surface through an enzyme-linked reagent.
The target of series [4] is T1, Glucocorticoid receptor (Homo sapiens, UniProt P04150).
T1 sequence (P04150 whole entry): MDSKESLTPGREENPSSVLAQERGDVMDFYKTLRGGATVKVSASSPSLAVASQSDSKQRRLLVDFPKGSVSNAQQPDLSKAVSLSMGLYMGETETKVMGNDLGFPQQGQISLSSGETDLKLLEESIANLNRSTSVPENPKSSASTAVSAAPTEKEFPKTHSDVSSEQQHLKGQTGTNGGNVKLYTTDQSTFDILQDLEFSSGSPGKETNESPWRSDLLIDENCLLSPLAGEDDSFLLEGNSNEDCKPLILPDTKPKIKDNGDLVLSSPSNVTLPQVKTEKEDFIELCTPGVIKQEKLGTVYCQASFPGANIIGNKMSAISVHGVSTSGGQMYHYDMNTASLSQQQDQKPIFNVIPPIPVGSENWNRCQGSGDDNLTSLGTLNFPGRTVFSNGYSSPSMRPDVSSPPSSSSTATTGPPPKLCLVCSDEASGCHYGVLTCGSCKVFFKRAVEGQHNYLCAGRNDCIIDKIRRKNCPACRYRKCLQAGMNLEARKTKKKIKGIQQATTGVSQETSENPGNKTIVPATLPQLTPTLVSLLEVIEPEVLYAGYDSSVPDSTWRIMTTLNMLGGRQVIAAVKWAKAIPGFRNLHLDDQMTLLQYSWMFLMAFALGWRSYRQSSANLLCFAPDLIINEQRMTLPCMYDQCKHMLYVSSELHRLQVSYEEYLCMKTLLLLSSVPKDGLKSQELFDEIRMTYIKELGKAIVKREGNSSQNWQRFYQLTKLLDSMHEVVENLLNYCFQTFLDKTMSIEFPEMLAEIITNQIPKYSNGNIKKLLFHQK
Put plainly: Modulation of glucocorticoid receptor (unknown origin) transfected in human HeLa cells assessed as transrepression by measuring inhibition of PMA-induced AP-1 signalling incubated for 18 hrs by dual-luciferase reporter based assay. The class given is cell-based. For orientation: A reporter such as luciferase makes a cellular process visible.

Series [5] deals with T1, Glucocorticoid receptor. As to the kind of experiment: Modulation of glucocorticoid receptor (unknown origin) transfected in human HeLa cells assessed as transrepression by measuring inhibition of TNF-alpha induced NF-kappaB signalling incubated for 18 hrs by dual-luciferase reporter based assay. Format: cell-based.
Series [6] deals with T1, Glucocorticoid receptor. Put plainly: Binding affinity to glucocorticoid receptor (unknown origin) by Lanthascreen TR-FRET competition binding assay.
In series [7] the target is T1, Glucocorticoid receptor. Put plainly: Antagonist activity at glucocorticoid receptor (unknown origin) transfected in human HeLa cells assessed as inhibition of dexamethasone-induced transactivation of receptor incubated for 18 hrs by firefly luciferase assay. Format: cell-based.
Series [8] is described as follows: Cytotoxicity against human Chang liver cells assessed as inhibition of cell growth. The class given is toxicity, cell-based.
A further series concerns NIH3T3. As to the kind of experiment: Cytotoxicity against mouse 3T3 cells assessed as inhibition of cell growth. The class given is toxicity, cell-based.
Series [9] is described as follows: Cmax in BALB/c mouse at 10 mg/kg, po. Format: ADME, organism-based. On the set-up: dose 10 mg/kg, route po. The note with it: in vivo.
A short description of series [10]: Toxicity in DNCB-induced BALB/c atopic dermatitis mouse model assessed as reduction in body weight at 5 to 20 mg/kg, po administered via gavage for 21 consecutive days starting from day 4 post DNCB stimulation. The note with it: in vivo, 504 h, dose 5-20 mg/kg, time 21 day. Format: organism-based.
Series [11] can be described thus: Tmax in BALB/c mouse at 10 mg/kg, po. Format: ADME, organism-based. The note with it: in vivo.
The nature of series [12]: Half life in BALB/c mouse at 10 mg/kg, po. The class given is ADME, organism-based. The note with it: in vivo.
Series [13] is described as follows: Oral bioavailability in BALB/c mouse at 10 mg/kg. The class given is ADME, organism-based. As to conditions: in vivo.

Regarding `C[C@@H]1C[C@H]2[C@@H]3CCC4=CC(=O)C=C[C@]4(C)[C@@]3(F)[C@@H](O)C[C@]2(C)[C@@]1(O)C(=O)CO` [DEXAMETHASONE], the Activity entry (with GES1; in series [1]) was “Non-Toxic” throughout.
In general, IC50 refers to the concentration that gives 50% inhibition. Take `COc1ccc(C(=O)/C=C/c2cccc(OC)c2OC)cc1`: the IC50 in series [2] and in series [3] was 10 µM in each case.
With `COc1cc(C)c(Cl)cc1S(=O)(=O)Nc1ccc2c(c1)CCCN2C(=O)N(C)C`, the half-maximal inhibitory concentration (IC50) worked out at 0.53 µM on Glucocorticoid receptor [4], 0.05 µM on Glucocorticoid receptor [5], 2.75 µM on Glucocorticoid receptor [6] and 27.3 µM at Glucocorticoid receptor [7].
In the same order, the values of `COc1cc(C)c(Cl)cc1S(=O)(=O)Nc1ccc2c(c1)CCCN2C(C)=O` are 2.71 µM, 0.47 µM, 3.19 µM and 12.1 µM.
With `CC(C)[C@H](NC(=O)C(C)(F)F)[C@H](Oc1ccc2c(cnn2-c2ccc(=O)n(C)c2)c1)c1ccccc1` [MIZACORAT], the Activity entry (in the series with GES1; in [8]; with NIH3T3) was “Toxic” each time.
With `COc1ccc(S(=O)(=O)N(c2ccc3c(c2)CCCN3C(=O)c2ccco2)S(=O)(=O)c2ccc(OC)cc2)cc1`, the IC50 on Glucocorticoid receptor [4] was 1.05 µM; at Glucocorticoid receptor [5], 0.28 µM; at Glucocorticoid receptor [6], above 50 µM.
Take `O=C(c1ccco1)N1CCCc2cc(NS(=O)(=O)c3cccs3)ccc21`: the concentration for half-maximal inhibition (IC50) at Glucocorticoid receptor [4] was 9.26 µM; on Glucocorticoid receptor [5], above 10 µM; on Glucocorticoid receptor [6] it was above 50 µM.
For `O=C(c1ccco1)N1CCCc2cc(N(S(=O)(=O)c3ccc(Cl)cc3)S(=O)(=O)c3ccc(Cl)cc3)ccc21`, in that order: 3.96 µM, 0.45 µM and above 50 µM.
Consider `O=C(c1ccco1)N1CCCc2cc(NS(=O)(=O)CCc3ccccc3)ccc21`, for which the IC50 was 6.53 µM on Glucocorticoid receptor [4], above 10 µM on Glucocorticoid receptor [5], above 10 µM at Glucocorticoid receptor [6] and above 10 µM at Glucocorticoid receptor [7].
In the case of `COc1cc(C)c(C)cc1S(=O)(=O)Nc1ccc2c(c1)CCCN2C(=O)C1CCCCC1`, the IC50 at Glucocorticoid receptor [4] was above 10 µM; at Glucocorticoid receptor [5], 4.61 µM; at Glucocorticoid receptor [6] it was above 50 µM.
`CCCCS(=O)(=O)N(c1ccc2c(c1)CCCN2C(=O)c1ccco1)S(=O)(=O)CCCC`: the half-inhibitory concentration (IC50) at Glucocorticoid receptor [4] is 2.84 µM; at Glucocorticoid receptor [5], 1.79 µM; at Glucocorticoid receptor [6], above 50 µM.
For `O=C(c1ccco1)N1CCCc2cc(N(S(=O)(=O)c3ccc(-c4ccccc4)cc3)S(=O)(=O)c3ccc(-c4ccccc4)cc3)ccc21`, in that order: 4.15 µM, 0.07 µM and 2.29 µM.
For `CN(C)c1cccc2c(S(=O)(=O)Nc3ccc4c(c3)CCCN4C(=O)c3ccco3)cccc12`, in that order: 1.67 µM, 0.21 µM and above 50 µM.
Take `COc1ccccc1S(=O)(=O)Nc1ccc2c(c1)CCCN2C(=O)c1ccco1`: the IC50 at Glucocorticoid receptor [4] was 4.91 µM; on Glucocorticoid receptor [5] it was 0.9 µM; on Glucocorticoid receptor [6], above 10 µM.
In the same order, the values of `CCCCc1ccc(S(=O)(=O)Nc2ccc3c(c2)CCCN3C(=O)c2ccco2)cc1` are 3.69 µM, 1.15 µM and 7.16 µM.
For `COc1ccc(C(=O)N2CCCc3cc(NS(=O)(=O)c4cc(Cl)c(C)cc4OC)ccc32)cc1`, in that order: 1.42 µM, 0.067 µM and above 50 µM.
In the case of `O=C(c1ccco1)N1CCCc2cc(NS(=O)(=O)c3ccc([N+](=O)[O-])cc3)ccc21`, the IC50 at Glucocorticoid receptor [4] is 4.27 µM; at Glucocorticoid receptor [5], 3.62 µM; on Glucocorticoid receptor [6], above 50 µM.
Turning to `O=C(c1ccco1)N1CCCc2cc(NS(=O)(=O)c3ccc(Cl)c(C(F)(F)F)c3)ccc21`, the values for the IC50 on Glucocorticoid receptor [4], at Glucocorticoid receptor [5] and on Glucocorticoid receptor [6] were 4.12 µM, 2.45 µM and 19.7 µM, respectively.
In the same order, the values of `COc1cc(C)c(C)cc1S(=O)(=O)Nc1ccc2c(c1)CCCN2C(=O)C1CC1` are 0.36 µM, 0.1 µM and 7.5 µM.
With `O=C(c1ccco1)N1CCCc2cc(N(S(=O)(=O)c3ccc(F)cc3)S(=O)(=O)c3ccc(F)cc3)ccc21`, the IC50 was 2.25 µM at Glucocorticoid receptor [4], 0.84 µM at Glucocorticoid receptor [5] and above 50 µM at Glucocorticoid receptor [6].
As for `COc1cc(C)c(Cl)cc1S(=O)(=O)Nc1ccc2c(c1)CCCN2C(=O)c1ccc(C(F)(F)F)cc1`, the concentration for half-maximal inhibition (IC50) came out at 3.33 µM on Glucocorticoid receptor [4], 0.3 µM on Glucocorticoid receptor [5] and 2.22 µM on Glucocorticoid receptor [6].
Consider `COc1cc(C)c(Cl)cc1S(=O)(=O)Nc1ccc2c(c1)CCCN2C(=O)c1ccc(F)cc1`, for which the IC50 turned out to be 2.73 µM at Glucocorticoid receptor [4], 0.35 µM on Glucocorticoid receptor [5], 6.96 µM at Glucocorticoid receptor [6] and 14.2 µM at Glucocorticoid receptor [7].
Turning to `COc1cc(C)c(Cl)cc1S(=O)(=O)Nc1ccc2c(c1)CCCN2C(=O)c1ccc(Cl)cc1`, the figures for the half-inhibitory concentration (IC50) on Glucocorticoid receptor [4], at Glucocorticoid receptor [5] and at Glucocorticoid receptor [6] were 1.81 µM, 0.1 µM and 2.07 µM, respectively.
The term Cmax denotes the maximum level reached in the sampled fluid or tissue. As usually defined, the Tmax is the time from dosing to the highest level. One may read the half-life as how long it takes for the measured level to halve. The term bioavailability denotes dose-corrected exposure relative to a reference, in per cent. `COc1cc(C)c(Cl)cc1S(=O)(=O)Nc1ccc2c(c1)CCCN2C(=O)c1ccccc1`: the IC50 came out at 7.74 µM in series [2]; 0.13 µM on Glucocorticoid receptor [4]; 0.009 µM at Glucocorticoid receptor [5]; 1.91 µM on Glucocorticoid receptor [6]; 19 µM on Glucocorticoid receptor [7]; 6.9 µM in series [3]. Further, the Activity result (with GES1; in [10]; with NIH3T3) was “Non-Toxic” each time. In series [9], this compound gave a Cmax of 394 ng/mL. Moreover, the Tmax in series [11] is 5 min. Moreover, the half-life in [12] is 30 min. This compound came in with a bioavailability in [13] of 19.8%.
`O=C(c1ccco1)N1CCCc2cc(NS(=O)(=O)c3ccc4c(c3)CCO4)ccc21`: the IC50 on Glucocorticoid receptor [4] stood at 5.04 µM; on Glucocorticoid receptor [5], 1.32 µM; at Glucocorticoid receptor [6], 1.97 µM.
`CCCCc1ccc(C(=O)N2CCCc3cc(NS(=O)(=O)c4cc(Cl)c(C)cc4OC)ccc32)cc1`: the IC50 is above 10 µM at Glucocorticoid receptor [4], 0.1 µM at Glucocorticoid receptor [5] and above 50 µM on Glucocorticoid receptor [6].
With `O=C(c1ccco1)N1CCCc2cc(NS(=O)(=O)c3ccc4ccccc4c3)ccc21`, the IC50 on Glucocorticoid receptor [4] came out at 2.08 µM; at Glucocorticoid receptor [5], 0.19 µM; at Glucocorticoid receptor [6], 1.12 µM.
For `O=C(c1ccco1)N1CCCc2cc(N(S(=O)(=O)c3ccccc3)S(=O)(=O)c3ccccc3)ccc21`, in that order: 0.62 µM, 0.39 µM and above 50 µM.
